From the supplement of paper PMC7394473

Key:
Conditions in all cases: 72 h
U2OS [1] = assay: FV IC50 (concentration giving fractional viability 0.5); higher = less potent killing
Description: (§1)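 U2OS cells treated with full dose titrations of drug; live and dead cells counted by STACK microscopy (mKate2 nuclei, SYTOX Green) at 72 h, biological triplicates. GR and FV dose responses were fitted with 4-parameter logistic models (GR lower bound -1). GRADE (0-100) is the rescaled angle of a linear fit of FV versus GR at doses with GR >= 0, giving the percentage of the response due to cell death.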

U2OS [2] = assay: GR50 (concentration giving GR = 0.5)
Description: as §1

U2OS [3] = assay: drug GRADE (percent of response due to cell death) (% (0-100)); higher = more death-driven response
Description: as §1

U2OS [4] = assay: normalized growth rate inhibition value (GR) relative to untreated cells (GR value (dimensionless, 1 = untreated growth)); higher = less growth inhibition
Description: (§2)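 U2OS::Nuc-mKate2 cells seeded in 96-well plates and treated with eight- to ten-point half-log or log dilutions of drug in the presence of 50 nM SYTOX Green. Live (mKate2+) and dead (SYTOX+) cells were counted by IncuCyte STACK live-cell microscopy at 72 h; biological triplicates. GR is the normalised growth-rate inhibition value (Hafner 2016; 1 = untreated growth, <0 = population shrinking). FV is live/(live+dead) cells, not normalised.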

U2OS [5] = assay: GRmin (fitted minimal GR value at highest effect) (GR value (dimensionless)); higher = less efficacious
Description: as §1

U2OS [6] = assay: fractional viability (live cells / total cells); higher = less cell death
Description: as §2

Compound | FV IC50 (U2OS [1]) | GR50 (U2OS [2]) | drug GRADE (U2OS [3]) | normalized growth rate inhibition value (U2OS [4]; 0.01 µM) | normalized growth rate inhibition value (U2OS [4]; 0.0316 µM) | normalized growth rate inhibition value (U2OS [4]; 0.1 µM) | normalized growth rate inhibition value (U2OS [4]; 0.316 µM) | normalized growth rate inhibition value (U2OS [4]; 1 µM) | normalized growth rate inhibition value (U2OS [4]; 3.16 µM) | normalized growth rate inhibition value (U2OS [4]; 10 µM) | normalized growth rate inhibition value (U2OS [4]; 31.6 µM) | GRmin (U2OS [5]) | fractional viability (U2OS [6]; 0.01 µM) | fractional viability (U2OS [6]; 0.0316 µM) | fractional viability (U2OS [6]; 0.1 µM) | fractional viability (U2OS [6]; 0.316 µM) | fractional viability (U2OS [6]; 1 µM) | fractional viability (U2OS [6]; 3.16 µM) | fractional viability (U2OS [6]; 10 µM) | fractional viability (U2OS [6]; 31.6 µM) | other results
Cc1cc(Nc2ccc(NC(=O)c3ccc(Nc4ccnc5ccccc45)cc3)cc2)nc(N)n1 [SGI-1027] | 1620 nM | 1.15 µM | 37.1 | 0.952 | 1.02 | 0.932 | 0.948 | 0.642 | -0.651 | -0.88 | -0.717 | -0.799 | 0.975 | 0.977 | 0.98 | 0.975 | 0.87 | 0.0651 | 0.00115 | 0.0226 | 
CNc1cc(-c2cccc(Cl)c2Cl)nc(N)n1 [TH287] | 3640 nM | 0.672 µM | 60 | 0.956 | 0.997 | 0.99 | 0.786 | 0.278 | 0.0764 | -0.106 | -0.187 | -0.144 | 0.973 | 0.981 | 0.976 | 0.953 | 0.787 | 0.534 | 0.383 | 0.476 | 
CC(=O)O[C@H]1C(=O)[C@@]2(C)[C@H]([C@H](OC(=O)c3ccccc3)[C@]3(O)C[C@H](OC(=O)[C@H](O)[C@@H](NC(=O)c4ccccc4)c4ccccc4)C(C)=C1C3(C)C)[C@]1(OC(C)=O)CO[C@@H]1C[C@@H]2O [Taxol] | 577 nM | 0.0907 µM | 75.6 |  |  |  |  | 0.0877 |  |  |  | 0.104 |  |  |  |  | 0.44 |  |  |  | normalized growth rate inhibition value (U2OS [4]; 0.000100578 µM): 1.13; normalized growth rate inhibition value (U2OS [4]; 0.000317827 µM): 1.2; normalized growth rate inhibition value (U2OS [4]; 0.00100433 µM): 1.23; normalized growth rate inhibition value (U2OS [4]; 0.00317369 µM): 1.14; normalized growth rate inhibition value (U2OS [4]; 0.0100289 µM): 1.06; normalized growth rate inhibition value (U2OS [4]; 0.0316912 µM): 0.813; normalized growth rate inhibition value (U2OS [4]; 0.100144 µM): 0.461; normalized growth rate inhibition value (U2OS [4]; 0.316456 µM): 0.211; fractional viability (U2OS [6]; 0.000100578 µM): 0.991; fractional viability (U2OS [6]; 0.000317827 µM): 0.991; fractional viability (U2OS [6]; 0.00100433 µM): 0.991; fractional viability (U2OS [6]; 0.00317369 µM): 0.988; fractional viability (U2OS [6]; 0.0100289 µM): 0.98; fractional viability (U2OS [6]; 0.0316912 µM): 0.897; fractional viability (U2OS [6]; 0.100144 µM): 0.759; fractional viability (U2OS [6]; 0.316456 µM): 0.591
COc1cc2nccc(Oc3ccc(NC(=O)Nc4cc(C)on4)c(Cl)c3)c2cc1OC [Tivozanib] | 7340 nM | 3.87 µM | 7.57 | 0.857 | 1.17 | 1.05 | 1.03 | 0.812 | 0.681 | -0.421 | -0.823 | -0.878 | 0.977 | 0.982 | 0.98 | 0.977 | 0.977 | 0.949 | 0.229 | 0.0183 | 
CC[C@@]1(O)C(=O)OCc2c1cc1n(c2=O)Cc2cc3c(CN(C)C)c(O)ccc3nc2-1 [Topotecan] | 7660 nM | 0.0151 µM | 9.92 |  |  |  |  |  |  | -0.295 |  | -0.0768 |  |  |  |  |  |  | 0.444 |  | normalized growth rate inhibition value (U2OS [4]; 0.00100578 µM): 1.09; normalized growth rate inhibition value (U2OS [4]; 0.00317827 µM): 0.979; normalized growth rate inhibition value (U2OS [4]; 0.0100433 µM): 0.698; normalized growth rate inhibition value (U2OS [4]; 0.0317369 µM): 0.105; normalized growth rate inhibition value (U2OS [4]; 0.100289 µM): 0.14; normalized growth rate inhibition value (U2OS [4]; 0.316912 µM): 0.0543; normalized growth rate inhibition value (U2OS [4]; 1.00144 µM): -0.044; normalized growth rate inhibition value (U2OS [4]; 3.16456 µM): -0.147; fractional viability (U2OS [6]; 0.00100578 µM): 0.985; fractional viability (U2OS [6]; 0.00317827 µM): 0.985; fractional viability (U2OS [6]; 0.0100433 µM): 0.978; fractional viability (U2OS [6]; 0.0317369 µM): 0.94; fractional viability (U2OS [6]; 0.100289 µM): 0.963; fractional viability (U2OS [6]; 0.316912 µM): 0.923; fractional viability (U2OS [6]; 1.00144 µM): 0.846; fractional viability (U2OS [6]; 3.16456 µM): 0.675
CC(C)[C@]12O[C@H]1[C@@H]1O[C@]13[C@]1(O[C@H]1C[C@H]1C4=C(CC[C@@]13C)C(=O)OC4)[C@@H]2O [Triptolide] | 11.2 nM | 0.00421 µM | 8 |  | -0.197 |  | -0.249 |  | -0.267 |  | -0.258 | -0.262 |  | 0.18 |  | 0.155 |  | 0.154 |  | 0.159 | normalized growth rate inhibition value (U2OS [4]; 3.16 pM): 1.03; normalized growth rate inhibition value (U2OS [4]; 31.6 pM): 1.01; normalized growth rate inhibition value (U2OS [4]; 0.000316 µM): 0.928; normalized growth rate inhibition value (U2OS [4]; 0.00316 µM): 0.633; fractional viability (U2OS [6]; 3.16 pM): 0.981; fractional viability (U2OS [6]; 31.6 pM): 0.979; fractional viability (U2OS [6]; 0.000316 µM): 0.979; fractional viability (U2OS [6]; 0.00316 µM): 0.957
CC(C)[C@@H]1NC(=O)[C@H](C)OC(=O)[C@@H](C(C)C)NC(=O)[C@@H](C(C)C)OC(=O)[C@H](C(C)C)NC(=O)[C@H](C)OC(=O)[C@@H](C(C)C)NC(=O)[C@@H](C(C)C)OC(=O)[C@H](C(C)C)NC(=O)[C@H](C)OC(=O)[C@@H](C(C)C)NC(=O)[C@@H](C(C)C)OC1=O [Valinomycin] | 4060 nM | 0.0108 µM | 34.4 |  |  |  |  |  |  | -0.225 |  | -0.0918 |  |  |  |  |  |  | 0.384 |  | normalized growth rate inhibition value (U2OS [4]; 0.00100578 µM): 1.02; normalized growth rate inhibition value (U2OS [4]; 0.00317827 µM): 0.986; normalized growth rate inhibition value (U2OS [4]; 0.0100433 µM): 0.171; normalized growth rate inhibition value (U2OS [4]; 0.0317369 µM): 0.472; normalized growth rate inhibition value (U2OS [4]; 0.100289 µM): -0.0547; normalized growth rate inhibition value (U2OS [4]; 0.316912 µM): 0.0438; normalized growth rate inhibition value (U2OS [4]; 1.00144 µM): -0.0358; normalized growth rate inhibition value (U2OS [4]; 3.16456 µM): -0.0823; fractional viability (U2OS [6]; 0.00100578 µM): 0.993; fractional viability (U2OS [6]; 0.00317827 µM): 0.991; fractional viability (U2OS [6]; 0.0100433 µM): 0.874; fractional viability (U2OS [6]; 0.0317369 µM): 0.933; fractional viability (U2OS [6]; 0.100289 µM): 0.685; fractional viability (U2OS [6]; 0.316912 µM): 0.737; fractional viability (U2OS [6]; 1.00144 µM): 0.675; fractional viability (U2OS [6]; 3.16456 µM): 0.553
O=C(CCCCCCC(=O)Nc1ccccc1)NO [Vorinostat] | 765 nM | 0.274 µM | 28 |  |  |  |  |  |  | -0.591 |  | -0.601 |  |  |  |  |  |  | 0.091 |  | normalized growth rate inhibition value (U2OS [4]; 0.00100578 µM): 0.932; normalized growth rate inhibition value (U2OS [4]; 0.00317827 µM): 1.11; normalized growth rate inhibition value (U2OS [4]; 0.0100433 µM): 0.89; normalized growth rate inhibition value (U2OS [4]; 0.0317369 µM): 0.906; normalized growth rate inhibition value (U2OS [4]; 0.100289 µM): 0.901; normalized growth rate inhibition value (U2OS [4]; 0.316912 µM): 0.396; normalized growth rate inhibition value (U2OS [4]; 1.00144 µM): -0.201; normalized growth rate inhibition value (U2OS [4]; 3.16456 µM): -0.515; fractional viability (U2OS [6]; 0.00100578 µM): 0.992; fractional viability (U2OS [6]; 0.00317827 µM): 0.99; fractional viability (U2OS [6]; 0.0100433 µM): 0.991; fractional viability (U2OS [6]; 0.0317369 µM): 0.985; fractional viability (U2OS [6]; 0.100289 µM): 0.973; fractional viability (U2OS [6]; 0.316912 µM): 0.875; fractional viability (U2OS [6]; 1.00144 µM): 0.365; fractional viability (U2OS [6]; 3.16456 µM): 0.16
COCC[n+]1c2c(n(Cc3cnccn3)c1C)C(=O)c1ccccc1C2=O [YM155] | 36.4 nM | 0.00769 µM | 44.1 | 0.107 | 0.0141 | -0.788 | -0.79 | -0.94 | -0.882 | -0.967 | -0.859 | -0.913 | 0.852 | 0.59 | 0.0412 | 0.00681 | 0.00318 | 0.00039 | 0 | 0.0019 | normalized growth rate inhibition value (U2OS [4]; 3.16 pM): 0.943; normalized growth rate inhibition value (U2OS [4]; 31.6 pM): 1; normalized growth rate inhibition value (U2OS [4]; 0.000316 µM): 1.02; normalized growth rate inhibition value (U2OS [4]; 0.00316 µM): 0.777; fractional viability (U2OS [6]; 3.16 pM): 0.981; fractional viability (U2OS [6]; 31.6 pM): 0.981; fractional viability (U2OS [6]; 0.000316 µM): 0.983; fractional viability (U2OS [6]; 0.00316 µM): 0.962
